Data on 12 compounds can be found in PMC9921564, “Novel Indole-Containing Hybrids Derived from Millepachine: Synthesis, Biological Evaluation and Antitumor Mechanism Study” (Molecules, 2023).

The structures appear in SMILES notation.

In data set [1] the test system is A549 (human non-small-cell-lung cancer cell line). The data set is described as follows: CCK-8 antiproliferative assay, A549. In kind it is cell-based. The settings on record: 48 h, read-out: IC50, Mean ± SE, A549.
Data set [2] concerns Caski (human epithelial cervical cancer cell line). As to the kind of experiment: CCK-8 antiproliferative assay, Caski. In kind it is cell-based. The settings on record: Ca-Ski, 48 h, read-out: IC50, Mean ± SE, Caski.
The test system of data set [3] is HepG2 (human liver carcinoma cell line). The data set is described as follows: CCK-8 antiproliferative assay, HepG2. In kind it is cell-based. The settings on record: 48 h, read-out: IC50, Mean ± SE, HepG2.
For data set [4], the system named is C42B (human prostate cancer line). As to the kind of experiment: CCK-8 antiproliferative assay, C42B. In kind it is cell-based. The settings on record: 48 h, read-out: IC50, Mean ± SE, C42B.
In data set [5] the test system is MCF-7 (human breast carcinoma cell line). As to the kind of experiment: CCK-8 antiproliferative assay, MCF-7. In kind it is cell-based. The settings on record: MCF7, 48 h, read-out: IC50, Mean ± SE, MCF-7.
Data set [6] has as its system five kinds of human cancer cell lines (A549, Caski, HepG2, C42B, MCF-7). The data set is described as follows: CCK-8 assay, panel of five human cancer cell lines. The data set is classed as cell-based. The settings on record: 48 h, read-out: IC50 values, range over five human cancer cell lines.
The nature of data set [7]: metabolic stability in human liver microsomes. In kind it is in vitro ADME. The settings on record: for Remaining%: 37 °C, NADPH regenerating system. The procedure:
Metabolic stability is one of the most important properties in drug development. In this study, commercially available human liver microsomes were used to evaluate the metabolic stability of compound 14b. After incubation with human liver microsomes at 37 °C in vitro for an indicated time in a buffer solution containing a NADPH regenerating system, the residue of 14b was monitored by HPLC. CA-4 was used as the reference compound. […] As well known, a short half-life means a low bioavailability in vivo and is required for frequent administration with a high dose, which might result in drug accumulation and may produce related toxicity.

In the case of `COc1ccc(C(=O)c2cccc3[nH]ccc23)c2c1C=CC(C)(C)O2` [compound 11a, (1H-indol-4-yl)(5-methoxy-2,2-dimethyl-2H-chromen-8-yl)methanone], the IC50 in data set [1] was found to be 631 ± 18 nM; in data set [2] it was 832 ± 11 nM; in data set [3], 998 ± 34 nM; in data set [4], 911 ± 34 nM; in data set [5], 816 ± 45 nM.

Regarding `COc1cc(C(=O)/C=C/c2cn(C)c3ccccc23)cc2c1OC(C)(C)C=C2` [5b, (E)-1-(8-methoxy-2,2-dimethyl-2H-chromen-6-yl)-3-(1-methyl-1H-indol-3-yl)prop-2-en-1-one], the IC50 in data set [1] was determined as 362 ± 17 nM; in data set [2] it was 729 ± 33 nM; in data set [3], 461 ± 17 nM; in data set [4] it was 577 ± 21 nM; in data set [5] it was 350 ± 11 nM.

`COc1ccc(C(=O)c2ccc(OC)c3c2OC(C)(C)C=C3)cc1` [Compd. A, reference compound]: the half-maximal inhibitory concentration (IC50) in data set [1] is 226 ± 35 nM; in data set [2], 892 ± 24 nM; in data set [3], 758 ± 17 nM; in data set [4] it was 526 ± 7 nM; in data set [5], 456 ± 21 nM; in data set [6], 226 to 892 nM.

`COc1ccc(/C=C\c2cc(OC)c(OC)c(OC)c2)cc1O` [CA-4, reference compound]: the t1/2 in data set [7] is less than 60 min. In addition, the Remaining% in data set [7] (30 min) is on record as 70.2%; in data set [7] (60 min), 28.3%; in data set [7] (90 min) it was 20.5%; in data set [7] (120 min), 18.7%.

As for `COc1ccc(C(=O)c2ccc3[nH]ccc3c2)c2c1C=CC(C)(C)O2` [14a, (1H-indol-5-yl)(5-methoxy-2,2-dimethyl-2H-chromen-8-yl)methanone], the IC50 in data set [1] was 72 ± 4 nM; in data set [2] it was 86 ± 9 nM; in data set [3], 142 ± 14 nM; in data set [4], 89 ± 21 nM; in data set [5], 82 ± 11 nM.

As to `COc1ccc(/C=C/C(=O)c2ccc(OC)c3c2OC(C)(C)C=C3)cc1` [Millepachine], the concentration for half-maximal inhibition (IC50) in data set [1] was 2570 ± 131 nM; in data set [2], 6710 ± 233 nM; in data set [3], 3880 ± 244 nM; in data set [4], 3180 ± 384 nM; in data set [5] it was 4530 ± 338 nM; in data set [6], 2570 to 6710 nM.

Regarding `COc1cc(C(=O)c2ccc3[nH]ccc3c2)cc2c1OC(C)(C)C=C2` [21a, (1H-indol-5-yl)(8-methoxy-2,2-dimethyl-2H-chromen-6-yl)methanone], the IC50 in data set [1] turned out to be 105 ± 11 nM; in data set [2] it was 211 ± 12 nM; in data set [3], 441 ± 71 nM; in data set [4] it was 209 ± 20 nM; in data set [5] it was 121 ± 21 nM.

For `COc1cc(C(=O)/C=C/c2c[nH]c3ccccc23)cc2c1OC(C)(C)C=C2` [compound 5a, (E)-3-(1H-indol-3-yl)-1-(8-methoxy-2,2-dimethyl-2H-chromen-6-yl)prop-2-en-1-one], the IC50 is 812 ± 22 nM in data set [1]; 1930 ± 35 nM in data set [2]; 963 ± 32 nM in data set [3]; 1380 ± 21 nM in data set [4]; 1553 ± 14 nM in data set [5].

As for `COc1cc(C(=O)c2ccc3c(ccn3C)c2)cc2c1OC(C)(C)C=C2` [21b, (8-methoxy-2,2-dimethyl-2H-chromen-6-yl)(1-methyl-1H-indol-5-yl)methanone], the half-inhibitory concentration (IC50) is 82 ± 10 nM in data set [1]; 106 ± 12 nM in data set [2]; 97 ± 31 nM in data set [3]; 107 ± 6 nM in data set [4]; 99 ± 31 nM in data set [5].

For `COc1ccc(C(=O)c2cccc3c2ccn3C)c2c1C=CC(C)(C)O2` [11b, (5-methoxy-2,2-dimethyl-2H-chromen-8-yl)(1-methyl-1H-indol-4-yl)methanone], the half-inhibitory concentration (IC50) worked out at 208 ± 9 nM in data set [1]; 516 ± 12 nM in data set [2]; 454 ± 21 nM in data set [3]; 455 ± 15 nM in data set [4]; 651 ± 24 nM in data set [5].

For `COc1cc(C(=O)c2cccc3[nH]ccc23)cc2c1OC(C)(C)C=C2` [19a, (1H-indol-4-yl)(8-methoxy-2,2-dimethyl-2H-chromen-6-yl)methanone], the half-inhibitory concentration (IC50) in data set [1] is 1320 ± 16 nM; in data set [2], 2311 ± 19 nM; in data set [3], 3098 ± 21 nM; in data set [4], 2410 ± 42 nM; in data set [5], 1775 ± 4 nM.

For `COc1cc(C(=O)c2cccc3c2ccn3C)cc2c1OC(C)(C)C=C2` [19b, (8-methoxy-2,2-dimethyl-2H-chromen-6-yl)(1-methyl-1H-indol-4-yl)methanone], the concentration for half-maximal inhibition (IC50) in data set [1] amounted to 642 ± 81 nM; in data set [2] it was 1100 ± 32 nM; in data set [3], 898 ± 9 nM; in data set [4], 1080 ± 34 nM; in data set [5], 1020 ± 15 nM.
